Data as given in patent US20240139125A1 (INDUSTRIAL COOPERATION FOUNDATION JEONBUK NATIONAL …, priority 2020, published 2024).

Tests used:
[1] = Cell viability for BIA and analogues, HT1080 cell line; format: cell-based; conditions: human, HT1080 fibrosarcoma cells; for viability at 5 µM: HT1080, 5 uM; for viability at 10 µM: HT1080, 10 uM
Description: HT1080 MDA-MB-231, SKBR3 and MCF7 cell lines were cultured in a 37° C., 5% CO2 incubator in a medium with 10% Fetal Bovine Serum, 1% penicillin and streptomycin (100 U) added to DMEM.
(§1) The compound prepared in Example 15 was treated with HT1080 fibrosarcoma cell line at 5 μM and 10 μM and cell viability was measured. In addition, the compound prepared in Example 15 on the DU145 prostate cancer cell line was treated with 10 μM, 20 μM, and 30 μM and cell viability was measured (see Table 2, Table 3).

[2] = Cell viability for BIA and analogues, DU145 cell line; format: cell-based; conditions: human; for viability at 10 µM: DU145, 10 uM; for viability at 20 µM: DU145, 20 uM; for viability: DU145, 50 rpm
Description: as §1

[3] = system: AKT serine phosphorylation (S473); assay: AKT phosphorylation by Western blotting; format: cell-based; conditions: BIA analogues, 10 μM
Description: This is AKT signaling key to cancer cell growth, and BIA and its analogues tend to inhibit it. Only representative experimental results were presented. Data were expressed as mean±SD. After one-way ANOVA, Tukey's post hoc test is conducted.
After cell recovery, cell lytic buffer (10 mM Tris-Cl (pH 7.4), 5 mM EDTA, 130 mM NaCl, 1% Triton X-100) and protease inhibitor mix protease inhibitor cocktail (protease inhibitor cocktail and phosphatase inhibitor cocktail) were added and left at 4° C. for 30 minutes. After breaking the cells with ultrasound, they were centrifuged at 13,000× g at 4° C. for 30 minutes, and then the supernatant was taken, and the concentration was quantified using a protein quantification kit (Bio-Rad Laboratories, Hercules, CA, USA). 20 ug of the obtained protein was electrophoresis with polyacrylamide gel electrophoresis (SDS-PAGE) followed by electrotransfer to PVDF membrane (Bio-Rad). The membrane was blocked at room temperature for 1 hour with a TBS-T solution (20 mM Tris (pH 7.5), 137 mM NaCl, 0.05% Triton X-100) containing 5% skim milk. Then, after switching to a solution containing the primary antibody, it was reacted at 4° C. The membrane after the reaction was washed three times with TBS-T solution, reacted with a secondary antibody, and then luminesced using an ECL kit and autoradiography. […]

SARS-CoV2 virus = assay: MTT cell viability of Vero E6 cells infected with SARS-CoV2; format: cell-based; conditions: Severe acute respiratory syndrome coronavirus 2, Vero C1008, 24 h, Vero E6, SARS-CoV2 0.1 MOI, 500 nM, 24 hours after treatment; control DMSO-S 66.52±2.28%
Description: Vero E6 cells, monkey kidney cell masters, were dispensed at 1×10^4 cells/well per well in 96 well plates and incubated at 37° C., 5% CO2 incubators for 24 hours. SARS-CoV2 to infect Vero E6 cells was S ARS-CoV 43326 distributed from the National Pathogen Resource Bank, and DMEM (2% FBS, 1% antibiotic-antimycotic) medium was dispensed at 100 μL/well to infect 0.1 MOI. For 1 hour The virus was removed after 1 hour of infection in a 37° C., 5% CO2 incubator.
Next, samples prepared so that BIA or analogue compounds were finally 500 nM were dispensed 100 μL/well, including the culture medium, and then treated in a 37° C., 5% CO2 incubator for 24 hours. In the same way, the group treated with 2 μM, 5 μM, or 10 μM of Remdesivir (Rem) was a positive control.
Check the condition of the cells, add 100 μL/well of 0.5 mg/ml MTT solution, react in a 37° C., 5% CO2 incubator for 4 hours, wash out the media, and DMSO to the cells by 100 μL/well After sufficient dissolution, absorbance was measured at 540 nm with a plate reader to evaluate cell viability.
To confirm the possibility of viral prevention and therapeutic effects of BIA and its analogue compounds, 500 nM treatment of BIA analogue at the same time as viral infection, and then MTT assay whether the viability of cells against viral infection is improved after 24 hours. The results confirmed are shown in the graph of FIG. 82.

BI-1 (TMBIM6) = assay: TMBIM6-GCaMP3 fluorescence, calcium released through BI-1; format: cell-based; conditions: 10 μM, compared with DMSO control
BAL inflammatory cells = assay: Aspergillus-infected asthmatic mouse model, BAL cells and lung histology; format: in vivo; conditions: asthma-inducing group; BIA 0.1 mg/kg and 0.01 mg/kg, IC87114 1 mg/kg, intratracheal
Excerpt: FIG. 80A and FIG. 80B show mice that were infected with aspergillus with or without BIA, or IC87114, fixing the tissue to 4% formalin, injecting paraffin to make blocks, and then cutting into 4 μm thick to react to buffer and performing hematoxylin-eosin staining. The observation result (A) and the observation result (B) by PAS staining are shown.
The result is quantified by counting the total number of cells of living BAL fluid, excluding dead cells stained in trypan blue.
A. fumigatus-induced allergic pulmonary inflammation To establish the model, mice were treated with 10 μg of A. fumigatus crude antigen extract (Greer Laboratories, Cat # XPM3D3A4, Lenoir, NC, USA) with fungal substance inactivated. 0.2 ml of incomplete Freund's adjuvant (Sigma-Aldrich, Cat # F5506-6X) in regular saline It was dissolved and mixed, and half of the preparation was deposited in the peritoneal cavity and the rest was delivered subcutaneously. After 2 weeks, mice received 20 μg of A. fumigatus antigen dissolved in normal saline through the intranasal route, after an intranasal attack After 4 days, 20 μg of A. Fumigatus antigen dissolved in normal saline was treated via the endotracheal route. Control mice were administered only saline at the same time point in time through the same route and treated with the same number of conidia. […]

SMILES	viability at 5 µM [1]	viability at 10 µM [1]	viability at 10 µM [2]	viability at 20 µM [2]	viability [2]	AKT serine phosphorylation [3]	viability at 0.5 µM (SARS-CoV2 virus)	inhibition of calcium release through BI-1 (TMBIM6-GCaMP3 fluorescence) (BI-1 (TMBIM6))	all BAL inflammatory cells (BAL inflammatory cells)
O=C(/C=C/c1cccc([N+](=O)[O-])c1)c1ccccc1 [GM-90128, (E)-3-(3-nitrophenyl)-1-phenylprop-2-en-1-one]	102%	57.8%	81%	72.2%	62.2%	inhibited	–	–	–
Nc1ccccc1C(=O)/C=C/c1cccc([N+](=O)[O-])c1 [GM-90129, (E)-1-(2-aminophenyl)-3-(3-nitrophenyl)prop-2-en-1-one]	–	–	91.4%	90.2%	61.4%	–	77.7 ± 3.6%	–	–
Nc1ccccc1C(=O)/C=C/c1ccncc1 [GM-90228, (E)-1-(2-aminophenyl)-3-(pyridin-4-yl)prop-2-en-1-one]	30.4%	22.8%	54.1%	37.8%	15.1%	–	74.3 ± 3.43%	–	–
COc1cc(N)c(C(=O)/C=C/c2cccc([N+](=O)[O-])c2)cc1OC [GM-90254, (E)-1-(2-amino-4,5-dimethoxyphenyl)-3-(3-nitrophenyl)prop-2-en-1-one]	14.7%	8.59%	61.1%	31.5%	8.51%	–	–	stronger inhibitory effect	–
CCOc1cccc(/C=C/C(=O)c2ccccc2N)c1 [GM-90295, (E)-1-(2-aminophenyl)-3-(3-ethoxyphenyl)prop-2-en-1-one]	103%	82.4%	91.7%	86.7%	84.7%	–	–	stronger inhibitory effect	–
Nc1ccccc1C(=O)/C=C/c1cccc(C(=O)O)c1 [GM-90296, (E)-3-(3-(2-aminophenyl)-3-oxoprop-1-en-1-yl)benzoic acid]	107%	91.6%	91%	82.3%	76.9%	–	–	stronger inhibitory effect	–
Nc1ccc(F)cc1C(=O)/C=C/c1cccc([N+](=O)[O-])c1 [GM-90298, (E)-1-(2-amino-5-fluorophenyl)-3-(3-nitrophenyl)prop-2-en-1-one]	21.2%	19%	68.9%	62.3%	48.7%	–	–	stronger inhibitory effect	–
CC(C)(C)OC(=O)Nc1cccc(/C=C/C(=O)c2ccccc2N)c1 [GM-90299, tert-butyl (E)-(3-(3-(2-aminophenyl)-3-oxoprop-1-en-1-yl)phenyl) carbamate]	93.2%	20.1%	82.2%	59%	17.2%	–	–	stronger inhibitory effect	–
Nc1ccccc1C(=O)/C=C/c1cccc(F)c1 [GM-90318, (E)-1-(2-aminophenyl)-3-(3-fluorophenyl)prop-2-en-1-one]	21.4%	11.8%	–	–	–	–	–	stronger inhibitory effect	–
N/C(=N\O)c1cccc(/C=C/C(=O)c2ccccc2N)c1 [GM-90338, (Z)-3-((E)-3-(2-aminophenyl)-3-oxoprop-1-en-1-yl)-N′-hydroxy Benzimidamide]	44.7%	10.5%	42.8%	31.9%	11.1%	–	–	stronger inhibitory effect	–
Nc1ccccc1-c1cc(-c2cccc(C(F)(F)F)c2)on1 [GM-90340, 2-(5-(3-(trifluoromethyl)phenyl)isoxazol-3-yl)aniline]	88.7%	80.2%	92.9%	89.3%	76.1%	–	–	–	–
Cc1ccccc1-n1c(Cn2cnc3c(N)ncnc32)nc2cccc(C)c2c1=O [IC87114, reference compound]	–	–	–	–	–	–	–	–	inhibited
